For two compounds, minimal effective concentration results are on record in article PMC7377239, “Cardiovascular Effects of Polychlorinated Biphenyls and Their Major Metabolites” (Environmental Health Perspectives, 2020).

Where a name gives a salt, the structure may show the parent alone. Read-outs that look alike come from different tables or passages of the source.

Test [1] deals with iCell endothelial cells (human iPSC-derived ECs). Put plainly: Tube formation (tubulogenesis) assay in iCell endothelial cells, 18 h. Particulars: Homo sapiens, Endothelial cell, endothelial cells (endo), 18 hr. Type of test: cell-based. The method, boiled down: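 iCell ECs (passages 1–5) seeded 7,500 cells/well on reduced-growth-factor Geltrex in starvation medium, exposed overnight at 37°C to compounds in triplicate concentration–response (0.5% DMSO vehicle). Calcein AM staining, 4× imaging, angiogenesis image analysis; readouts normalized to vehicle, four-parameter logistic fit, POD at 1 SD of vehicle; 100 μM assigned NOAEL if no response.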

The next test relates to HUVECs. The test is described as follows: High-content imaging cytotoxicity in HUVECs, 24 h. It is filed as cell-based, human. The following applies: Homo sapiens, HUVEC, 24 h, HUVEC, 24 hr. The method, boiled down:
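Point-of-departure values derive from four-parameter logistic fits of vehicle-normalized imaging phenotypes (Hoechst 33342, MitoTracker Orange, calcein AM). The fits follow 24 h exposure of HUVEC monolayers at 37°C and 5% CO2, with a top tested concentration of 100μM.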

Where [2] appears, read: tube formation mtl, read-out: POD endo.mtl.18hr.
[3] abbreviates: tube formation tlps, read-out: POD endo.tlps.18hr.
The mark [4] stands for this setting: tube formation tta, read-out: POD endo.tta.18hr.
Setting [5] is: tube formation ttl, read-out: POD endo.ttl.18hr.
Setting [6] is: cyto, read-out: POD huvec.cyto.24hr.
The mark [7] stands for this setting: mito, read-out: POD huvec.mito.24hr.
Setting [8] is: mitoint, read-out: POD huvec.mitoint.24hr.
Setting [9] is: nma, read-out: POD huvec.nma.24hr.
The mark [10] stands for this setting: tc, read-out: POD huvec.tc.24hr.

On to `O=S(=O)(O)Oc1ccc(-c2ccc(Cl)cc2)cc1` [4'-PCB 3 sulfate], for which the minimal effective concentration in test [1] (setting [2]) is 4.33 µM; in test [1] (setting [3]) it was 11.7 µM; in test [1] (setting [4]) it was 16.8 µM; in test [1] (setting [5]), 11 µM; in the test with HUVECs (setting [6]) it was 100 µM; with HUVECs (setting [7]), 100 µM. In addition, the minimal effective concentration in the test on HUVECs (setting [8]), in the test with HUVECs (setting [9]) and in the test with HUVECs (setting [10]) was 100 µM throughout.
As for `Clc1ccc(Cl)c(-c2c(Cl)ccc(Cl)c2Cl)c1` [PCB 95, 2,2′,3,5′,6-pentachlorobiphenyl], the minimal effective concentration in test [1] (setting [2]) was determined as 48.6 µM; in test [1] (setting [3]), 53.9 µM; in test [1] (setting [4]), 48.7 µM; in test [1] (setting [5]), 55.7 µM; in the test with HUVECs (setting [6]), 0.01 µM; in the test with HUVECs (setting [7]), 0.022 µM. In addition, the values for the minimal effective concentration in the test with HUVECs (setting [8]), in the test on HUVECs (setting [9]) and in the test on HUVECs (setting [10]) were 7.41 µM, 1.93 µM and 0.01 µM, respectively.
